System: subjects with mIDH1 advanced AML
Experiment: Phase I study: safety and tolerability (TEAE, DLT, MTD, ECG)
Type: in vivo
Description: This study was an open-label, nonrandomized, multicenter phase I trial. Subjects were screened at 13 hospital sites in 2 countries (USA and Germany). The study was to consist of dose-escalation followed by dose-expansion. The MTD identified in dose-escalation was to be used in the dose-expansion. If MTD was not reached in dose-escalation, a dose for the expansion would be selected based on available PK, pharmacodynamic, safety, and efficacy data. BAY1436032 was administered twice-daily (BID) in continuous 28-day cycles. In dose-escalation, up to 9 evaluable subjects could be enrolled per cohort, with a minimum of 3 dose-limiting toxicity (DLT)-free evaluable subjects required prior to escalating to the next highest dose. Bayesian dose-DLT modeling was performed to help guide dosing decisions.
DLTs were differentially defined for nonhematopoietic versus hematopoietic toxicities. Nonhematopoietic toxicities of ≥grade 3 occurring during the first cycle of treatment were to be considered DLTs with the following exceptions: (1) Alopecia and nausea controlled by medical management; (2) Tumor lysis syndrome if successfully managed clinically and resolved within 7 days without any end-organ damage; (3) Differentiation syndrome (DS) if successfully managed clinically and resolved within 7 days without any end-organ damage; (4) Asymptomatic ≥grade 3 electrolyte abnormalities not considered clinically significant by the investigator. […] For certain toxicities such as laboratory assessments without a clear clinical correlate, a discussion between the investigator and the sponsor determined whether the adverse event (AE) should be assessed as a DLT.
DLTs identified during the first cycle of treatment were used to guide dose-escalation decisions and to determine the MTD, and if safety issues appeared in subsequent cycles they were also to be considered. Hydroxyurea was permitted during the first cycle if white blood cell (WBC) exceeded 20 × 10^9/L and was also permitted for treatment of DS.
Safety and tolerability were evaluated by analysis of adverse events, physical examinations, vital signs, ECOG performance status, and various laboratory assessments. For safety monitoring, subjects were scheduled for clinic visits every week for the initial three cycles of treatment, after which time visits could be reduced to every-other-week with investigator and sponsor agreement. Cardiac function was assessed with triplicate 12-lead electrocardiograms (ECG) at screening, C1-D1, C1-D2, C1-D15, D1 of every subsequent cycle, and at treatment end. […] AEs are presented by the Medical Dictionary for Regulatory Activities (MedDRA) v21.1.

C[C@H]1C[C@@H](n2c(Nc3ccc(OC(F)(F)F)cc3)nc3cc(CCC(=O)O)ccc32)CC(C)(C)C1 [BAY1436032]
1: TEAE Hypokalaemia Grade 1 (1200 mg BID, n=7) | TEAE Leukocytosis Grade 2 (1200 mg BID, n=7) | TEAE Lung infection Grade 3 (1200 mg BID, n=7) | TEAE Pain in extremity Grade 1 (1200 mg BID, n=7) | TEAE Pneumonia Grade 2 (1200 mg BID, n=7) | TEAE Pneumonia Grade 3 (1200 mg BID, n=7) | TEAE Productive cough Grade 1 (1200 mg BID, n=7) | TEAE Pyrexia Grade 1 (1200 mg BID, n=7) | TEAE Rash Grade 1 (1200 mg BID, n=7) | TEAE Thrombocytopenia Grade 4 (1200 mg BID, n=7) | TEAE Weight decreased Grade 1 (1200 mg BID, n=7) | Related TEAE Differentiation syndrome Grade 2 (1500 mg BID, n=9) | Related TEAE Fatigue Grade 3 (1500 mg BID, n=9) | Related TEAE Hypomagnesaemia Grade 1 (1500 mg BID, n=9) | Related TEAE Nausea Grade 1 (1500 mg BID, n=9) | Related TEAE Sinus tachycardia Grade 1 (1500 mg BID, n=9) | Related TEAE Vomiting Grade 1 (1500 mg BID, n=9) | TEAE Abdominal pain upper Grade 2 (1500 mg BID, n=9) | TEAE Anxiety Grade 2 (1500 mg BID, n=9) | TEAE Arthralgia Grade 1 (1500 mg BID, n=9) | TEAE Arthralgia Grade 2 (1500 mg BID, n=9) | TEAE Contusion Grade 1 (1500 mg BID, n=9) | TEAE Contusion Grade 2 (1500 mg BID, n=9) | TEAE Cough Grade 2 (1500 mg BID, n=9) | TEAE Decreased appetite Grade 2 (1500 mg BID, n=9) | TEAE Decreased appetite Grade 3 (1500 mg BID, n=9) | TEAE Diarrhea Grade 2 (1500 mg BID, n=9) | TEAE Dry skin Grade 1 (1500 mg BID, n=9) | TEAE Dyspnoea Grade 1 (1500 mg BID, n=9) | TEAE Dyspnoea Grade 3 (1500 mg BID, n=9) | TEAE Fatigue Grade 1 (1500 mg BID, n=9) | TEAE Fatigue Grade 2 (1500 mg BID, n=9) | TEAE General physical health deterioration Grade 5 (1500 mg BID, n=9) | TEAE Haematuria Grade 3 (1500 mg BID, n=9) | TEAE Headache Grade 3 (1500 mg BID, n=9) | TEAE Hyperuricaemia Grade 1 (1500 mg BID, n=9) | TEAE Hypokalaemia Grade 2 (1500 mg BID, n=9) | TEAE Hypokalaemia Grade 3 (1500 mg BID, n=9) | TEAE Hyponatraemia Grade 3 (1500 mg BID, n=9) | TEAE Hypophosphataemia Grade 1 (1500 mg BID, n=9) | TEAE Hypophosphataemia Grade 2 (1500 mg BID, n=9) | TEAE Leukocytosis Grade 3 (1500 mg BID, n=9) | TEAE Nausea Grade 1 (1500 mg BID, n=9) | TEAE Nausea Grade 2 (1500 mg BID, n=9) | TEAE Oedema peripheral Grade 3 (1500 mg BID, n=9) | TEAE Pain in extremity Grade 2 (1500 mg BID, n=9) | TEAE Pneumonia Grade 1 (1500 mg BID, n=9) | TEAE Pneumonia Grade 3 (1500 mg BID, n=9) | TEAE Pneumonia fungal Grade 2 (1500 mg BID, n=9) | TEAE Pneumonia fungal Grade 3 (1500 mg BID, n=9) | TEAE Pneumonia fungal Grade 4 (1500 mg BID, n=9) | TEAE Productive cough Grade 2 (1500 mg BID, n=9)
3: TEAE Constipation Grade 1 (1500 mg BID, n=9) | TEAE Pyrexia Grade 3 (1500 mg BID, n=9)
0: TEAE Hypokalaemia Grade 2 (1200 mg BID, n=7) | TEAE Hypokalaemia Grade 3 (1200 mg BID, n=7) | TEAE Hyponatraemia Grade 1 (1200 mg BID, n=7) | TEAE Hyponatraemia Grade 3 (1200 mg BID, n=7) | TEAE Hypophosphataemia Grade 1 (1200 mg BID, n=7) | TEAE Hypophosphataemia Grade 2 (1200 mg BID, n=7) | TEAE Leukocytosis Grade 3 (1200 mg BID, n=7) | TEAE Lung infection Grade 5 (1200 mg BID, n=7) | TEAE Nausea Grade 2 (1200 mg BID, n=7) | TEAE Nausea Grade 3 (1200 mg BID, n=7) | TEAE Oedema peripheral Grade 3 (1200 mg BID, n=7) | TEAE Pain in extremity Grade 2 (1200 mg BID, n=7) | TEAE Pneumonia Grade 1 (1200 mg BID, n=7) | TEAE Pneumonia fungal Grade 2 (1200 mg BID, n=7) | TEAE Pneumonia fungal Grade 3 (1200 mg BID, n=7) | TEAE Pneumonia fungal Grade 4 (1200 mg BID, n=7) | TEAE Productive cough Grade 2 (1200 mg BID, n=7) | TEAE Pyrexia Grade 2 (1200 mg BID, n=7) | TEAE Pyrexia Grade 3 (1200 mg BID, n=7) | TEAE Rash Grade 2 (1200 mg BID, n=7) | TEAE Sepsis Grade 4 (1200 mg BID, n=7) | TEAE Sepsis Grade 5 (1200 mg BID, n=7) | TEAE Sinus tachycardia Grade 1 (1200 mg BID, n=7) | TEAE Vomiting Grade 1 (1200 mg BID, n=7) | TEAE Weight decreased Grade 3 (1200 mg BID, n=7) | Related TEAE Decreased appetite Grade 1 (1500 mg BID, n=9) | Related TEAE Decreased appetite Grade 2 (1500 mg BID, n=9) | Related TEAE Diarrhea Grade 2 (1500 mg BID, n=9) | Related TEAE Differentiation syndrome Grade 3 (1500 mg BID, n=9) | Related TEAE Dyspnea Grade 1 (1500 mg BID, n=9) | Related TEAE Dyspnea Grade 2 (1500 mg BID, n=9) | Related TEAE Fatigue Grade 1 (1500 mg BID, n=9) | Related TEAE Fatigue Grade 2 (1500 mg BID, n=9) | Related TEAE Nausea Grade 2 (1500 mg BID, n=9) | TEAE Acute kidney injury Grade 1 (1500 mg BID, n=9) | TEAE Acute kidney injury Grade 2 (1500 mg BID, n=9) | TEAE Acute kidney injury Grade 3 (1500 mg BID, n=9) | TEAE Anaemia Grade 3 (1500 mg BID, n=9) | TEAE Anaemia Grade 4 (1500 mg BID, n=9) | TEAE Anxiety Grade 1 (1500 mg BID, n=9) | TEAE Constipation Grade 2 (1500 mg BID, n=9) | TEAE Cough Grade 1 (1500 mg BID, n=9) | TEAE Dyspnoea Grade 2 (1500 mg BID, n=9) | TEAE Epistaxis Grade 2 (1500 mg BID, n=9) | TEAE Epistaxis Grade 3 (1500 mg BID, n=9) | TEAE Gingivitis Grade 1 (1500 mg BID, n=9) | TEAE Haematuria Grade 1 (1500 mg BID, n=9) | TEAE Haematuria Grade 2 (1500 mg BID, n=9) | TEAE Headache Grade 1 (1500 mg BID, n=9) | TEAE Headache Grade 2 (1500 mg BID, n=9) | TEAE Hyperkalaemia Grade 1 (1500 mg BID, n=9) | TEAE Hyperkalaemia Grade 4 (1500 mg BID, n=9) | TEAE Hypertension Grade 3 (1500 mg BID, n=9) | TEAE Hyperuricaemia Grade 3 (1500 mg BID, n=9) | TEAE Hypokalaemia Grade 1 (1500 mg BID, n=9) | TEAE Hyponatraemia Grade 1 (1500 mg BID, n=9) | TEAE Leukocytosis Grade 2 (1500 mg BID, n=9) | TEAE Lung infection Grade 3 (1500 mg BID, n=9) | TEAE Lung infection Grade 5 (1500 mg BID, n=9) | TEAE Oedema peripheral Grade 1 (1500 mg BID, n=9) | TEAE Pain in extremity Grade 1 (1500 mg BID, n=9) | TEAE Pneumonia Grade 2 (1500 mg BID, n=9) | TEAE Productive cough Grade 1 (1500 mg BID, n=9) | TEAE Pyrexia Grade 2 (1500 mg BID, n=9) | TEAE Rash Grade 1 (1500 mg BID, n=9) | TEAE Sepsis Grade 4 (1500 mg BID, n=9)
2: TEAE Nausea Grade 1 (1200 mg BID, n=7) | TEAE Oedema peripheral Grade 1 (1200 mg BID, n=7) | TEAE Weight decreased Grade 2 (1200 mg BID, n=7) | TEAE Abdominal pain upper Grade 1 (1500 mg BID, n=9) | TEAE Decreased appetite Grade 1 (1500 mg BID, n=9) | TEAE Diarrhea Grade 1 (1500 mg BID, n=9) | TEAE Epistaxis Grade 1 (1500 mg BID, n=9) | TEAE Fall Grade 1 (1500 mg BID, n=9) | TEAE Fatigue Grade 3 (1500 mg BID, n=9) | TEAE Febrile neutropenia Grade 3 (1500 mg BID, n=9) | TEAE General physical health deterioration Grade 3 (1500 mg BID, n=9) | TEAE Hypertension Grade 2 (1500 mg BID, n=9) | TEAE Nausea Grade 3 (1500 mg BID, n=9) | TEAE Pyrexia Grade 1 (1500 mg BID, n=9) | TEAE Rash Grade 2 (1500 mg BID, n=9)
